Measurements: publication PMC9230575, “^68Ga-Labeled [Leu^13ψThz^14]Bombesin(7–14) Derivatives: Promising GRPR-Targeting PET Tracers with Low Pancreas Uptake” (Molecules, 2022)
*1 amine or outer side, *2 acyl side, *3 side chain or, on linkers, in order; H or OH if unused. Where a SMILES comes first, the peptide text is derived from it. [ ]: non-standard residue; d: D form. The star is where a group is joined. DOTA = O=C(O)CN1CCN(CC(=O)O)CCN(CC(=O)*)CCN(CC(=O)O)CC1; Leuψ(CH2N)ThzNH2 = CC(C)C[C@@H](CN1CSC[C@H]1C(N)=O)N*; d2Nal = N[C@H](Cc1ccc2ccccc2c1)C(=O)O; Cya = N[C@@H](CS(=O)(=O)O)C(=O)O; X1 = O=C(CN1CCC(N[*:1])CC1)[*:2]

How the values were obtained:
[1] = test system: PC-3 tumor xenografts; assay: PET/CT imaging of mice bearing PC-3 tumor xenografts; type: in vivo; details: 1 h post-injection
Procedure: The PET/CT imaging experiments were carried out using a Siemens (Knoxville, TN, USA) Inveon micro-PET/CT scanner. […] At 50 min post-injection, a 10 min CT scan was conducted: first for localization and attenuation corrections after segmentation for reconstructing the PET images, followed by a 10 min static PET imaging acquisition.

[2] = test system: PC-3 tumor xenografts; assay: Ex vivo biodistribution in PC-3 tumor-bearing mice; details: 1 h post-injection, n = 4
Procedure: For biodistribution studies, the mice (n = 4) were injected with the radiotracer (~2–4 MBq, 0.03–0.07 nmol) as described above. […] At 1 h post-injection, the mice were euthanized by CO2 inhalation. Blood was withdrawn by cardiac puncture, and organs/tissues of interest were collected, weighed and counted using a Perkin Elmer (Waltham, MA, USA) Wizard2 2480 automatic gamma counter.

[3] = for Fraction remaining intact in plasma: NRG mice, 15 min post-injection, n = 3; for Intact tracer in urine: mouse urine samples collected at 15 min post-injection
Procedure: Imaging, biodistribution, and in vivo stability studies were performed using male NOD.Cg-Rag1^tm1Mom Il2rg^tm1Wjl/SzJ (NRG) mice (from in-house breeding colonies) following previously published procedures. […] When the tumor grew to 5–8 mm in diameter over 3–4 weeks, the mice were used for PET/CT imaging and biodistribution studies.
At 15 min post-injection, the mice were sedated and euthanized, and urine and blood were collected. The plasma was extracted from whole blood by the addition of CH3CN (500 μL), vortexing, centrifugation, and the separation of the supernatants. The plasma and urine samples were analyzed via radio-HPLC by using the conditions for quality control of these ^68Ga-labeled radioligands (Table S3).

[4] = physchem; details: 1-octanol/phosphate buffer, pH 7.4
Procedure: Briefly, aliquots (2 μL) of the ^68Ga-labeled peptides were added to a vial containing 3 mL of 1-octanol and 3 mL of 0.1 M phosphate buffer (pH 7.4). The mixture was vortexed for 1 min and then centrifuged at 5000 rpm for 10 min. Samples of the 1-octanol (1 mL) and buffer (1 mL) layers were taken and counted in a gamma counter. LogD7.4 was calculated using the following equation: LogD7.4 = log10[(counts in 1-octanol phase)/(counts in buffer phase)].

[5] = target: T1, GRPR (Homo sapiens, UniProt P30550); assay: Fluorometric intracellular calcium release assay using PC-3 cells; type: cell-based; details: 50 nM ligand
T1 construct: endogenous in cells; host or cells: PC-3 prostate cancer cells
T1 sequence (P30550 whole entry): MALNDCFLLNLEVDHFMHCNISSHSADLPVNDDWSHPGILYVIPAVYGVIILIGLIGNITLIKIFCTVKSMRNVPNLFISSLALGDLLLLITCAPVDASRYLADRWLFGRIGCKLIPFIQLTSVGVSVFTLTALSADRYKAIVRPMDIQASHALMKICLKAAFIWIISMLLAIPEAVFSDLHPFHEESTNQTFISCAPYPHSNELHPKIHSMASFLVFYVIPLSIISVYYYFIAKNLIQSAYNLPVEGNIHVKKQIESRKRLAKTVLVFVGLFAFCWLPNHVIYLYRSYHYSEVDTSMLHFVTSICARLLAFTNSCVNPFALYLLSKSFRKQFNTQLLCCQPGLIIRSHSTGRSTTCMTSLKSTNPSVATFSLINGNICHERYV
Procedure: Following previously published procedures, 5 × 10^4 PC-3 cells were seeded in 96-well clear-bottom black plates 24 h prior to the assay. The growth medium was removed and replaced with a loading buffer containing a calcium-sensitive dye (FLIPR Calcium 6 assay kit, Molecular Device, San Jose, CA, USA). After incubation at 37 °C for 30 min, the plates were placed in a FlexStation 3 microplate reader (Molecular Devices). […] Agonistic/antagonistic properties were determined using the relative fluorescent unit (RFU = max–min).

| Ca2+ efflux (relative fluorescence units, max-min) [5] [RFU] | Molecule | Excretion pathway in PET images [1] | logD [4] | other results |
| --- | --- | --- | --- | --- |
| – | CC(C)C[C@H](NC(=O)C[C@H](O)[C@H](CC(C)C)NC(=O)[C@H](Cc1c[nH]cn1)NC(=O)CNC(=O)[C@@H](NC(=O)[C@H](C)NC(=O)[C@H](Cc1c[nH]c2ccccc12)NC(=O)[C@H](CCC(N)=O)NC(=O)[C@@H](Cc1ccccc1)NC(=O)CN1CCC(NC(=O)CN2CCN(CC(=O)O)CCN(CC(=O)O)CCN(CC(=O)O)CC2)CC1)C(C)C)C(N)=O [[^68Ga]Ga-RM2, metal not drawn, reference compound] | primarily excreted through the renal pathway | -2.76 ± 0.03 | Spleen uptake [2]: 0.44 ± 0.26 %ID/g; Fraction remaining intact in plasma [3]: 71.9 ± 10.4%; Intact tracer in urine [3]: no intact |
| – | CC(C)C[C@@H](CN1CSC[C@H]1C(N)=O)NC(=O)[C@H](Cc1c[nH]cn1)NC(=O)CNC(=O)[C@@H](NC(=O)[C@H](C)NC(=O)[C@H](Cc1c[nH]c2ccccc12)NC(=O)[C@H](CCC(N)=O)NC(=O)[C@@H](Cc1ccc2ccccc2c1)NC(=O)CN1CCC(NC(=O)CN2CCN(CC(=O)O)CCN(CC(=O)O)CCN(CC(=O)O)CC2)CC1)C(C)C [[^68Ga]Ga-TacsBOMB3, metal not drawn] | primarily excreted through the renal pathway | -1.75 ± 0.04 | – |
| 754 ± 38.3 | bombesin | – | – | – |
| 25.3 ± 1.92 | [D-Phe^6,Leu-NHEt^13,des-Met^14]Bombesin(6–14) | – | – | – |
| – | CC(C)C[C@@H](CN1CSC[C@H]1C(N)=O)NC(=O)[C@H](Cc1c[nH]cn1)NC(=O)CNC(=O)[C@@H](NC(=O)[C@H](C)NC(=O)[C@H](Cc1c[nH]c2ccccc12)NC(=O)[C@H](CCC(N)=O)NC(=O)[C@@H](Cc1ccccc1)NC(=O)CN1CCC(NC(=O)CN2CCN(CC(=O)O)CCN(CC(=O)O)CCN(CC(=O)O)CC2)CC1)C(C)C [[^68Ga]Ga-TacsBOMB2, metal not drawn] | primarily excreted through the renal pathway | -2.39 ± 0.13 | Fraction remaining intact in plasma [3]: 83.3 ± 1.45%; Intact tracer in urine [3]: no intact |
| 334 ± 39.0 | Nc1ncnc2c1ncn2[C@@H]1O[C@H](COP(=O)(O)OP(=O)(O)OP(=O)(O)O)[C@@H](O)[C@H]1O [ATP, adenosine triphosphate] | – | – | – |
| – | CC(C)C[C@@H](CN1CSC[C@H]1C(N)=O)NC(=O)[C@H](Cc1c[nH]cn1)NC(=O)CNC(=O)[C@@H](NC(=O)[C@H](C)NC(=O)[C@H](Cc1c[nH]c2ccccc12)NC(=O)[C@H](CCC(N)=O)NC(=O)[C@@H](Cc1ccc2ccccc2c1)NC(=O)CN1CCC(NC(=O)[C@H](CS(=O)(=O)O)NC(=O)CN2CCN(CC(=O)O)CCN(CC(=O)O)CCN(CC(=O)O)CC2)CC1)C(C)C [[^68Ga]Ga-TacsBOMB6, metal not drawn] ({DOTA}-[Cya][X1][d2Nal]QWAVGH-{Leuψ(CH2N)ThzNH2}) | primarily excreted through the renal pathway | -2.55 ± 0.16 | – |

| Molecule | Ca2+ efflux (relative fluorescence units, max-min) [5] [RFU] | Excretion pathway in PET images [1] | logD [4] | other results |
| --- | --- | --- | --- | --- |
| CC(C)C[C@@H](CN1CSC[C@H]1C(N)=O)NC(=O)[C@H](Cc1c[nH]cn1)NC(=O)CNC(=O)[C@@H](NC(=O)[C@H](C)NC(=O)[C@H](Cc1c[nH]c2ccccc12)NC(=O)[C@H](CCC(N)=O)NC(=O)[C@H]1Cc2c([nH]c3ccccc23)CN1C(=O)CN1CCC(NC(=O)CN2CCN(CC(=O)O)CCN(CC(=O)O)CCN(CC(=O)O)CC2)CC1)C(C)C [Ga-TacsBOMB4] | 9.30 ± 3.74 | – | – | – |
| CC(C)C[C@@H](CN1CSC[C@H]1C(N)=O)NC(=O)[C@H](Cc1c[nH]cn1)NC(=O)CNC(=O)[C@@H](NC(=O)[C@H](C)NC(=O)[C@H](Cc1c[nH]c2ccccc12)NC(=O)[C@H](CCC(N)=O)NC(=O)[C@@H](Cc1ccc2ccccc2c1)NC(=O)CN1CCC(NC(=O)[C@H](CS(=O)(=O)O)NC(=O)CN2CCN(CC(=O)O)CCN(CC(=O)O)CCN(CC(=O)O)CC2)CC1)C(C)C [Ga-TacsBOMB6] ({DOTA}-[Cya][X1][d2Nal]QWAVGH-{Leuψ(CH2N)ThzNH2}) | 23.0 ± 0.06 | – | – | – |
